Reference: ChEMBL document CHEMBL1201862, “PubChem BioAssay data set” (2004)
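Values below derive from 48-hour exposures of cells grown in 96-well plates, with endpoints linearly interpolated between the two concentrations bracketing the appropriate inhibition level. GI50: concentration for 50% inhibition of growth.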 Activity calls are given as the source filed them. No stated cut-off is given here; in the data, active = GI50 up to about 1.1 µM and inactive = higher.

Key:
Assay in all cases: NCI anticancer screen, dose series, 48 h
786-0 = tested on: 786-0
A498 = tested on: A498
A549 = tested on: A549
ACHN = tested on: ACHN
BT-549 = tested on: BT-549
CAKI-1 = tested on: CAKI-1
CCRF-CEM = tested on: CCRF-CEM
DU-145 = tested on: DU-145
EKVX = tested on: EKVX
HCC 2998 = tested on: HCC 2998
HCT-116 = tested on: HCT-116
HCT-15 = tested on: HCT-15
HOP-62 = tested on: HOP-62
HOP-92 = tested on: HOP-92
HT-29 = tested on: HT-29
Hs-578T = tested on: Hs-578T
IGROV-1 = tested on: IGROV-1
K562 = tested on: K562
KM12 = tested on: KM12
LOX IMVI = tested on: LOX IMVI
M14 = tested on: M14
MDA-MB-231 = tested on: MDA-MB-231
MDA-MB-435 = tested on: MDA-MB-435
MDA-N = tested on: MDA-N
MOLT-4 = tested on: MOLT-4
Malme-3M = tested on: Malme-3M
NCI-H226 = tested on: NCI-H226
NCI-H23 = tested on: NCI-H23
NCI-H460 = tested on: NCI-H460
NCI-H522 = tested on: NCI-H522
NCI/ADR-RES = tested on: NCI/ADR-RES
OVCAR-3 = tested on: OVCAR-3
OVCAR-4 = tested on: OVCAR-4
OVCAR-5 = tested on: OVCAR-5
OVCAR-8 = tested on: OVCAR-8
PC-3 = tested on: PC-3
RXF 393 = tested on: RXF 393
SF-268 = tested on: SF-268
SF-295 = tested on: SF-295
SK-MEL-28 = tested on: SK-MEL-28
SK-MEL-2 = tested on: SK-MEL-2
SK-MEL-5 = tested on: SK-MEL-5
SN12C = tested on: SN12C
SNB-19 = tested on: SNB-19
SNB-75 = tested on: SNB-75
SR = tested on: SR
SW-620 = tested on: SW-620
T47D = tested on: T47D
TK-10 = tested on: TK-10
U-251 = tested on: U-251
UACC-257 = tested on: UACC-257
UACC-62 = tested on: UACC-62
UO-31 = tested on: UO-31
COLO 205 = tested on: COLO 205
HL-60 = tested on: HL-60
MCF7 = tested on: MCF7
RPMI-8226 = tested on: RPMI-8226
SF-539 = tested on: SF-539
SK-OV-3 = tested on: SK-OV-3

Measured: GI50

Cn1c(=O)c2c(nc(NCCNc3nc4c(c(=O)n(C)c(=O)n4C)n3C)n2C)n(C)c1=O
> 100 µM: HCT-15
inactive: 786-0 > 100 µM | A498 > 100 µM | A549 > 100 µM | ACHN > 100 µM | BT-549 > 100 µM | CAKI-1 > 100 µM | CCRF-CEM > 100 µM | DU-145 > 100 µM | EKVX > 100 µM | HCC 2998 > 100 µM | HCT-116 > 100 µM | HOP-62 > 100 µM | HOP-92 > 100 µM | HT-29 > 100 µM | Hs-578T > 100 µM | IGROV-1 > 100 µM | K562 > 100 µM | KM12 > 100 µM | LOX IMVI > 100 µM | M14 > 100 µM | MDA-MB-231 > 100 µM | MDA-MB-435 > 100 µM | MDA-N > 100 µM | MOLT-4 > 100 µM | Malme-3M > 100 µM | NCI-H226 > 100 µM | NCI-H23 > 100 µM | NCI-H460 > 100 µM | NCI-H522 > 100 µM | NCI/ADR-RES > 100 µM | OVCAR-3 > 100 µM | OVCAR-4 > 100 µM | OVCAR-5 > 100 µM | OVCAR-8 > 100 µM | PC-3 > 100 µM | RXF 393 > 100 µM | SF-268 > 100 µM | SF-295 > 100 µM | SK-MEL-28 > 100 µM | SK-MEL-2 > 100 µM | SK-MEL-5 > 100 µM | SN12C > 100 µM | SNB-19 > 100 µM | SNB-75 > 100 µM | SR > 100 µM | SW-620 > 100 µM | T47D > 100 µM | TK-10 > 100 µM | U-251 > 100 µM | UACC-257 > 100 µM | UACC-62 > 100 µM | UO-31 > 100 µM

[N-]=[N+]=NC1OC(=O)C(Cl)=C1N=P(c1ccccc1)(c1ccccc1)c1ccccc1 (stereo not drawn)
inactive: 786-0 > 10 µM | A498 > 10 µM | A549 > 10 µM | ACHN 8.63 µM | BT-549 > 10 µM | CAKI-1 > 10 µM | CCRF-CEM 4.3 µM | COLO 205 9.27 µM | DU-145 > 10 µM | EKVX > 10 µM | HCC 2998 > 10 µM | HCT-116 6.37 µM | HL-60 3.77 µM | HOP-62 > 10 µM | Hs-578T > 10 µM | IGROV-1 > 10 µM | K562 3.59 µM | KM12 7.85 µM | LOX IMVI 7.78 µM | M14 6.98 µM | MCF7 7.13 µM | MDA-MB-231 6.44 µM | MDA-MB-435 8.17 µM | MDA-N 9.27 µM | MOLT-4 3.01 µM | Malme-3M > 10 µM | NCI-H226 > 10 µM | NCI-H460 > 10 µM | NCI-H522 6.67 µM | NCI/ADR-RES 5.51 µM | OVCAR-3 5.9 µM | OVCAR-4 9.71 µM | OVCAR-5 > 10 µM | OVCAR-8 > 10 µM | PC-3 2.95 µM | RPMI-8226 3.34 µM | RXF 393 > 10 µM | SF-268 > 10 µM | SF-295 7.24 µM | SF-539 > 10 µM | SK-MEL-28 > 10 µM | SK-MEL-2 > 10 µM | SK-MEL-5 > 10 µM | SK-OV-3 > 10 µM | SN12C > 10 µM | SNB-19 > 10 µM | SNB-75 6.84 µM | SW-620 > 10 µM | T47D > 10 µM | TK-10 > 10 µM | U-251 > 10 µM | UACC-257 > 10 µM | UACC-62 > 10 µM | UO-31 > 10 µM
7.35 µM: HCT-15
